Data: patent US7553862B2, “4-amino-1,5-substituted-1,5-dihydro-imidazol-2-ones” (Hoffmann-La Roche Inc., priority 2006, dated 2009)

The molecules below were run against T1, mGlyT-1b (Mus musculus, UniProt P28571) (assay: Glycine uptake inhibition assay (mGlyT-1b)). Details: [3H]-glycine uptake in Flp-in-CHO cells transfected with mGlyT-1b cDNA; read-out: IC50 (μM) at GlyT-1.
T1 construct: host or cells: Flp-in-CHO
T1 sequence (P28571 1-651 isoform P28571-2): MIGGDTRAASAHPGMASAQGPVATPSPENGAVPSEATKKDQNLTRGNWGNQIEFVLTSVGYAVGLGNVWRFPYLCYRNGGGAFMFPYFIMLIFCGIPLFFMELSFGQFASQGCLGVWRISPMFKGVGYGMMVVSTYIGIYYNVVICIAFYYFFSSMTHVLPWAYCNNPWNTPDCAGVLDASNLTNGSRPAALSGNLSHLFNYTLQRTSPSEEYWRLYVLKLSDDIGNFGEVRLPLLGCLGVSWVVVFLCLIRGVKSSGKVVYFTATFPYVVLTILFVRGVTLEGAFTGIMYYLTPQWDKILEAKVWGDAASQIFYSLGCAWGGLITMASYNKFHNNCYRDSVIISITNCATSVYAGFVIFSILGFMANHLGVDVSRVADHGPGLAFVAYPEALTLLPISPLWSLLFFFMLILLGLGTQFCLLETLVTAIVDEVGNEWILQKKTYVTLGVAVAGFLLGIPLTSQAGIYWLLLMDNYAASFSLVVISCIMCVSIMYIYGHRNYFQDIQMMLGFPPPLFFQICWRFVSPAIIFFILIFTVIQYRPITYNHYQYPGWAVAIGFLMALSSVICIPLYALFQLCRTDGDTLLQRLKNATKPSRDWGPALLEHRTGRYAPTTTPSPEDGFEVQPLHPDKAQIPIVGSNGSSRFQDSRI
Assay type: cell-based
Protocol: DMEM complete medium: Nutrient mixture F-12 (Gibco Life-technologies), fetal bovine serum (FBS) 5%, (Gibco life technologies), Penicillin/Streptomycin1% (Gibco life technologies), Hygromycin 0.6 mg/ml (Gibco life technologies), Glutamine 1 mM Gibco life technologies) Uptake buffer (UB): 150 mM NaCl, 10 mM Hepes-Tris, pH 7.4, 1 mM CaCl2, 2.5 mM KCl, 2.5 mM MgSO4, 10 mM (+) D-glucose.
Flp-in™-CHO (Invitrogen Cat n° R758-07) cells stably transfected with mGlyT1b cDNA.
Glycine Uptake Inhibition Assay (mGlyT-1b)
On day 1 mammalian cells, (Flp-in™-CHO), transfected with mGlyT-1b cDNA, were plated at the density of 40,000 cells/well in complete F-12 medium, without hygromycin in 96-well culture plates. On day 2, the medium was aspirated and the cells were washed twice with uptake buffer (UB). The cells were then incubated for 20 min at 22° C. with either (i) no potential competitor, (ii) 10 mM non-radioactive glycine, (iii) a concentration of a potential inhibitor. A range of concentrations of the potential inhibitor was used to generate data for calculating the concentration of inhibitor resulting in 50% of the effect (e.g. IC50, the concentration of the competitor inhibiting glycine uptake of 50%). A solution was then immediately added containing [^3H]-glycine 60 nM (11-16 Ci/mmol) and 25 μM non-radioactive glycine. The plates were incubated with gentle shaking and the reaction was stopped by aspiration of the mixture and washing (three times) with ice-cold UB. The cells were lysed with scintillation liquid, shaken 3 hours and the radioactivity in the cells was counted using a scintillation counter.

Question: How did the IC50 turn out when O=C1N=C(NCc2ccccc2)[C@@H](c2ccccc2)N1c1ccc(Cl)cc1 (single isomer, unassigned) [Example 50, (−)-4-Benzylamino-1-(4-chloro-phenyl)-5-phenyl-1,5-dihydro-imidazol-2-one] was run?
Answer: The IC50 was 0.062 µM.

Question: With Cc1ccc(C2C(NCc3ccccc3)=NC(=O)N2c2ccc(Cl)c(Cl)c2)cc1 (racemic) [Example 24, (Rac)-4-benzylamino-1-(3,4-dichloro-phenyl)-5-p-tolyl-1,5-dihydro-imidazol-2-one] as the molecule, how does the IC50 read?
Answer: The IC50 was 0.04 µM.

Question: Which IC50 does the source give for CCCCCCNC1=NC(=O)N(c2ccc(Cl)c(Cl)c2)C1c1ccccc1 (racemic) [Example 57, (Rac)-1-(3,4-dichloro-phenyl)-4-hexylamino-5-phenyl-1,5-dihydro-imidazol-2-one] here?
Answer: Its IC50 is 0.077 µM.

Question: CC(C)CCNC1=NC(=O)N(c2ccc(Cl)c(Cl)c2)C1c1ccccc1 (racemic) [Example 53, Rac-1-(3,4-dichloro-phenyl)-4-(3-methyl-butylamino)-5-phenyl-1,5-dihydroimidazol-2-one] was tested. Which IC50 did it give?
Answer: Its IC50 is 0.082 µM.

Question: For Cc1ccc(C2C(NCc3ccccc3)=NC(=O)N2c2ccc(Cl)c(Cl)c2)cc1C (racemic) [Example 25, Rac-4-benzylamino-1-(3,4-dichloro-phenyl)-5-(3,4-dimethyl-phenyl)-1,5-dihydro-imidazol-2-one], which IC50 is on record?
Answer: Its IC50 is 0.057 µM.

Question: How did the IC50 turn out when O=C1N=C(NCc2ccccc2)C(c2ccc(F)cc2)N1c1ccc(F)c(Cl)c1 (racemic) [Example 44, Rac-4-Benzylamino-1-(3-chloro-4-fluoro-phenyl)-5-(4-fluoro-phenyl)-1,5-dihydro-imidazol-2-one] was run?
Answer: Its IC50 is 0.058 µM.

Question: How did the IC50 turn out when O=C1N=C(NCc2ccccc2)C(c2ccc(F)cc2)N1c1ccc(Cl)c(Cl)c1 (racemic) [Example 43, (Rac)-4-benzylamino-1-(3,4-dichloro-phenyl)-5-(4-fluoro-phenyl)-1,5-dihydro-imidazol-2-one] was run?
Answer: Its IC50 is 0.03 µM.

Question: How did the IC50 turn out when O=C1N=C(NCc2ccccc2)C(c2ccccc2)N1c1ccc(Cl)c(Cl)c1 (racemic) [Example 13, Rac-4-benzylamino-1-(3,4-dichloro-phenyl)-5-phenyl-1,5-dihydro-imidazol-2-one] was run?
Answer: Its IC50 is 0.076 µM.

Question: Which IC50 does the source give for O=C1N=C(NCc2ccccc2)C(c2ccc(Cl)cc2)N1c1ccc(Cl)c(Cl)c1 (racemic) [Example 28, (Rac)-4-benzylamino-5-(4-chloro-phenyl)-1-(3,4-dichloro-phenyl)-1,5-dihydro-imidazol-2-one] here?
Answer: Its IC50 is 0.035 µM.

Question: How did the IC50 turn out when O=C1N=C(NCc2ccc(F)cc2)C(c2ccccc2)N1c1ccc(Cl)c(Cl)c1 (racemic) [Example 51, Rac-1-(3,4-dichloro-phenyl)-4-(4-fluorobenzylamino)-5-phenyl-1,5-dihydro-imidazol-2-one] was run?
Answer: The IC50 was 0.007 µM.

Question: How did the IC50 turn out when O=C1N=C(NCC2CCCCC2)C(c2ccccc2)N1c1ccc(Cl)c(Cl)c1 (racemic) [Example 58, (Rac)-4-(cyclohexylmethyl-amino)-1-(3,4-dichloro-phenyl)-5-phenyl-1,5-dihydro-imidazol-2-one] was run?
Answer: The IC50 was 0.024 µM.

Question: With O=C1N=C(NCc2ccccc2)C(c2ccccc2)N1c1ccc(Cl)cc1 (racemic) [Example 10, (Rac)-4-benzylamino-1-(4-chloro-phenyl)-5-phenyl-1,5-dihydro-imidazol-2-one] as the molecule, how does the IC50 read?
Answer: Its IC50 is 0.062 µM.
